Reference: PubChem BioAssay (NCI)
“And” between values parts separate entries of the source, which are not always exact repeats. Equal values may be shown once.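 1) Cells in 96-well plates. 2) Compound, 48 h, 5 concentrations. 3) Linear interpolation between surrounding doses. 4) Unreached endpoint = highest concentration. The concentration for 50% growth inhibition is given as GI50. At the TGI there is no net growth.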

Assays:
Experiment in all cases: growth of human tumour cells (NCI), 48 h
HCC-2998 colon = tested on: HCC-2998 colon
HL-60(TB) leukemia = tested on: HL-60(TB) leukemia
RXF 393 renal = tested on: RXF 393 renal
SF-295 CNS = tested on: SF-295 CNS
HCT-116 colon = tested on: HCT-116 colon
DU-145 prostate = tested on: DU-145 prostate
SK-OV-3 ovarian = tested on: SK-OV-3 ovarian
NCI-H23 lung = tested on: NCI-H23 lung
SF-539 CNS = tested on: SF-539 CNS
SF-268 CNS = tested on: SF-268 CNS

Structure (SMILES) | GI50 (HCC-2998 colon) | TGI (HCC-2998 colon) | GI50 (HL-60(TB) leukemia) | TGI (HL-60(TB) leukemia) | GI50 (RXF 393 renal) | TGI (RXF 393 renal) | GI50 (SF-295 CNS) | TGI (SF-295 CNS) | GI50 (HCT-116 colon) | TGI (HCT-116 colon) | GI50 (DU-145 prostate) | TGI (DU-145 prostate) | GI50 (SK-OV-3 ovarian) | TGI (SK-OV-3 ovarian) | GI50 (NCI-H23 lung) | TGI (NCI-H23 lung) | GI50 (SF-539 CNS) | TGI (SF-539 CNS) | GI50 (SF-268 CNS) | TGI (SF-268 CNS)
N#CC(C#N)N=Nc1ccc(Br)cc1 | 8.04 µM | 33.1 µM | 1700 nM | 4.38 µM | 3630 nM | 14 µM | 30.3 µM | > 100 µM | 2440 nM | 9.44 µM | 4.02 µM | > 51.1 µM | 22.3 µM | > 100 µM | 2.42 µM | 26.7 µM | 3570 nM | 18.3 µM | 13.1 µM | > 100 µM
Nc1ncnc2c1c(-c1cccc(OCc3ccccc3)c1)cn2C1CC(CN2CCC2)C1 (stereo not drawn) | 2.26 µM and 5.4 µM | 10.6 µM and > 10 µM | 112 nM and 96.9 nM | 2.08 µM and 2.04 µM | 1710 nM and 2000 nM | 4.27 µM and 7.26 µM | 1.89 µM and 2.36 µM | 3.93 µM and 5.63 µM | 1850 nM and 2580 nM | 11.5 µM and > 10 µM | 4.61 µM and 7.63 µM | 17.7 µM and > 10 µM | 3.99 µM | 11.3 µM and > 10 µM | 4.62 µM and 7.36 µM | 21.1 µM and > 10 µM | 1650 nM and 1950 nM | 3.18 µM and 5.16 µM | 2.24 µM and 3.68 µM | 6.54 µM and > 10 µM
COc1cc2c(cc1OC)C(OC)N(C)c1c-2ccc2cc3c(cc12)OCO3 (stereo not drawn) | – | 5.73 µM | – | > 36.9 µM | – | 22.7 µM | – | > 75 µM | – | 7.63 µM | – | > 75 µM | – | 2.53 µM | – | 6.49 µM | – | 4.69 µM | – | > 20.9 µM
O=[N+]([O-])/C=C/c1cc2ccccc2[nH]1 | – | – | – | 24.3 µM | – | 26.6 µM | – | 43.9 µM | – | 15.7 µM | – | 28.8 µM | – | 32.8 µM | – | 30.2 µM | – | 25.5 µM | – | 36.4 µM
O=C(O)CCC/C=C\C[C@H]1C=CC(=O)/C1=C/C[C@@H](O)CCc1cccc(C(F)(F)F)c1 | 1.87 µM | 3.5 µM | 2370 nM | 6.9 µM | 2000 nM | 3.61 µM | 2.5 µM | 6.09 µM | 1270 nM | 3.17 µM | 2.43 µM | 10.3 µM | 5.66 µM | 18.3 µM | 2.25 µM | 6.37 µM | 2460 nM | 6.57 µM | 3.22 µM | 16.5 µM
COc1ccc(-c2nc(C(=O)c3ccccc3)n(CC(=O)c3ccccc3)c2-c2ccc(OC)cc2)cc1 | > 100 µM | > 100 µM | > 100000 nM | > 100 µM | > 100000 nM | > 100 µM | > 100 µM | > 100 µM | > 100000 nM | > 100 µM | > 100 µM | > 100 µM | > 100 µM | > 100 µM | > 100 µM | > 100 µM | > 100000 nM | > 100 µM | > 100 µM | > 100 µM
O=C(Nc1ccccc1O)c1ccc(CNc2ccnc(C(F)(F)F)c2)cc1 | 10.2 µM | 26.5 µM | 1850 nM | 8.03 µM | 17300 nM | 43.3 µM | 3.16 µM | 17.1 µM | 3960 nM | 34.9 µM | 3.38 µM | 19.4 µM | 5.41 µM | 41.7 µM | 4.72 µM | 81.4 µM | 1890 nM | 23.1 µM | 4.55 µM | 26.3 µM
CCn1cc(-c2ccnc3[nH]ccc23)c(-c2cccc(NC(=O)Nc3ccc(OCc4ccccc4)cc3)c2)n1 | 13.2 µM | > 25 µM | 4230 nM | 17.2 µM | 1280 nM | 7.88 µM | 4.55 µM | > 25 µM | 12100 nM | > 25 µM | > 25 µM | > 25 µM | > 22.4 µM | > 25 µM | 16.5 µM | > 25 µM | 12900 nM | > 25 µM | > 19.7 µM | > 25 µM
C[C@@H](CN1CC(=O)NC(=O)C1)N1CC(=O)NC(=O)C1 | – | 1540 µM | – | 1300 µM | – | 1140 µM | – | 779 µM | – | 750 µM | – | 1430 µM | – | 1870 µM | – | 791 µM | – | 1060 µM | – | 1160 µM
O=C(O)c1cc2ccccc2oc1=O | – | > 100 µM | – | > 100 µM | – | > 100 µM | – | > 100 µM | – | > 100 µM | – | > 100 µM | – | – | – | > 100 µM | – | > 100 µM | – | > 100 µM
CCCCCCCCCc1cc[n+](CC(=O)c2ccc([N+](=O)[O-])cc2)cc1 | 0.514 µM | 1.93 µM | 1700 nM | 3.64 µM | 754 nM | 2.15 µM | 1.44 µM | 2.79 µM | 373 nM | 1.43 µM | 0.729 µM | 2.04 µM | 1.66 µM | 3.18 µM | 1.01 µM | 2.56 µM | 1650 nM | 3.1 µM | 1.34 µM | 2.81 µM
CN1C(=O)[C@@H](NC(=O)[C@H](CCC(F)(F)F)[C@H](CCC(F)(F)F)C(N)=O)N=C(c2ccccc2)c2ccccc21 | > 100 µM | > 100 µM | 62600 nM | > 100 µM | 24600 nM | > 100 µM | 58.4 µM | > 100 µM | 56700 nM | > 100 µM | > 100 µM | > 100 µM | > 100 µM | > 100 µM | > 100 µM | > 100 µM | 50300 nM | > 100 µM | > 100 µM | > 100 µM
O=c1c(O)cccc2cc(O)c(O)c(O)c12 | > 100 µM | > 100 µM | 21900 nM | 77.9 µM | 13300 nM | > 100 µM | 5.28 µM | > 100 µM | 7670 nM | > 100 µM | 18.8 µM | > 100 µM | > 100 µM | > 100 µM | 8.89 µM | > 100 µM | 5010 nM | > 100 µM | 5.34 µM | > 100 µM
N#CSc1c[nH]c2ccc(/C=C/C(=O)/C=C(/C=C/c3ccc4[nH]cc(SC#N)c4c3)OB(F)F)cc12 | 3.72 µM | 19.7 µM | 949 nM | 4.18 µM | 240 nM | 0.852 µM | 3.47 µM | 14.4 µM | 88.7 nM | 0.375 µM | 0.694 µM | 2.55 µM | 25.3 µM | 88.3 µM | 0.947 µM | 3.86 µM | 1860 nM | 6.17 µM | 1.12 µM | 2.8 µM
